Key:
[1] = system: IFNγ stimulated STAT1 phosphorylation on Tyr701 (JAK1/2); test: JAK1/2 cellular target modulation: IFNγ stimulated phospho-STAT1 in PBMC; type: cell-based; details: human PBMC, IFNγ 10 ng/ml; read-out: Infγ-STAT1 IC50
Method in brief: (§1)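 Thawed human PBMC (200,000/well, RPMI/10% FBS) were preincubated with compound for 1 h at 37 °C, added from 10× stocks in 1% DMSO. Stimulation and read-out: IL-2 25 ng/ml, 5 min, pSTAT5 by MSD; IL-12 1.7 ng/ml, 25 min, pSTAT4 by MSD; IFNγ 10 ng/ml, 10 min, pSTAT1 by sandwich ELISA.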

[2] = biological target: JAK1 (Homo sapiens (Human), UniProt P23458); test: JAK1 enzyme activity assay (Thermo Fisher SelectScreen, Z-lyte); type: biochemical; details: read-out: JAK1 Inhibition IC50
Method in brief: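 Z-lyte assay with 21.2-91.5 ng JAK and […] Tyr 06 in 50 mM HEPES pH 7.0, 10 mM MgCl2, 1 mM EGTA, 0.01% BRIJ-35; 1 h kinase reaction, then development reagent. 11-point dose-response from […] to 0.34 nM, 2% DMSO vehicle; IC50 from 4-parameter logistic fit of emission ratio.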

[3] = system: IL-12 stimulated STAT4 phosphorylation on Tyr693 (JAK2/TYK2); test: JAK2/TYK2 cellular target modulation: IL-12 stimulated phospho-STAT4 in PBMC; type: cell-based; details: human PBMC, IL-12 1.7 ng/ml; read-out: IL12-STAT4 IC50
Excerpt: JAK Cellular Target Modulation Assays
Target modulation was based upon the ability of a compound to inhibit JAK isoform specific phosphorylation of selected substrates. IL-2 stimulated STAT5 phosphorylation on Tyr694 was used to assess JAK1/3 compound selectivity. GM-CSF stimulated STAT5 phosphorylation on Tyr694 was used to assess JAK2 compound selectivity. IFNγ stimulated STAT1 phosphorylation on Tyr701 was used to assess JAK1/2 compound selectivity. IL-12 stimulated STAT4 phosphorylation on Tyr693 was used to assess JAK2/TYK2 compound selectivity. For all four assays, human PBMC from frozen stocks were thawed, pelleted, resuspended in complete media (90% RPMI, 10% heat inactivated FBS, 10 mM HEPES, 47 μM 2-ME, pen/strep) and placed in wells of a 96 well V-bottom plate at 200,000 per well in 120 μl complete media. Compounds were added as 15 μl per well of 10× working stock solutions in complete media with 1% DMSO (or medium with 1% DMSO for controls) and placed on a plate shaker in a 37° C. incubator with 5% CO2 for 1 hour with gentle shaking (setting of 3). Stimulation used the addition of soluble cytokines. For the JAK1/3 phospho-STAT5 assay, 15 μl of 10× working stock recombinant human IL-2 was added to a final concentration of 25 ng/ml. For the JAK2 phospho-STAT5 assay, 15 μl of 10× working stock recombinant human GM-CSF was added to a final concentration of 5 ng/ml. For the JAK1/2 phospho-STAT1 assay, 15 μl of 10× working stock of recombinant human IFNγ was added to a final concentration of 10 ng/ml. For the JAK2/TYK2 phospho-STAT4 assay, 15 μl of 10× working stock of recombinant human IL-12 was added to a final concentration of 1.7 ng/ml. Plates were then placed back on the plate shaker in the incubator for an additional 5, 5, 10, and 25 minutes respectively upon which the plates were removed from the incubator, sealed with a plate sealer and the cells pelleted at 400×g for 5 minutes. After pelleting, the media was removed by aspiration and the cells were lysed in assay specific cell lysis buffer. The levels of phospho-STATS were determined using a Phospho (Tyr694) STAT5a,b Whole Cell Lysate kit from Meso Scale Discovery. Levels of phospho-STAT1 were determined using a CST-PathScan Phospho-STAT1 (Tyr701) Sandwich ELISA kit. Levels of phospho-STAT4 were determined using a Phospho-STAT4 (Tyr693) Whole Cell Lysate kit from Meso Scale Discovery.

[4] = system: IL-2 stimulated STAT5 phosphorylation on Tyr694 (JAK1/3); test: JAK1/3 cellular target modulation: IL-2 stimulated phospho-STAT5 in PBMC; type: cell-based; details: human PBMC, IL-2 25 ng/ml; read-out: IL2-STAT5 IC50
Method in brief: as §1

[5] = biological target: Tyk-2 (Homo sapiens (Human), UniProt P29597); test: Tyk-2 enzyme activity assay (Thermo Fisher SelectScreen, Z-lyte); type: biochemical; details: read-out: Tyk-2 Inhibition IC50
Method in brief: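 Z-lyte FRET assay: 3.75–15 ng TYK2 with […] Tyr 03 peptide in HEPES pH 7.0, MgCl2, EGTA, BRIJ-35; 1 h reaction, then development reagent. 11-point dose-response, 2% DMSO; IC50 via 4-parameter fit of emission ratio, background without enzyme.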

[6] = biological target: JAK3 (a.a. 781-1124) (Homo sapiens (Human), UniProt P52333); test: JAK3 enzyme activity assay (SRCtide phosphorylation, Caliper); type: biochemical; details: 1 uM ATP; read-out: JAK3 Inhibition IC50
[7] = biological target: JAK2 (Homo sapiens (Human), UniProt O60674); test: JAK2 enzyme activity assay (Thermo Fisher SelectScreen, Z-lyte); type: biochemical; details: read-out: JAK2 Inhibition IC50
Method in brief: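 IC50 values derive from a 4-parameter logistic fit of emission ratio across an 11-point series ([…] to 0.34 nM, 2% DMSO vehicle). Reaction: 1 h, 0.12-0.5 ng JAK2, […] Tyr 06 in HEPES pH 7.5 buffer with MgCl2, EGTA, BRIJ-35, read by Z-lyte development.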

Chain of JAK1 (P23458 whole entry): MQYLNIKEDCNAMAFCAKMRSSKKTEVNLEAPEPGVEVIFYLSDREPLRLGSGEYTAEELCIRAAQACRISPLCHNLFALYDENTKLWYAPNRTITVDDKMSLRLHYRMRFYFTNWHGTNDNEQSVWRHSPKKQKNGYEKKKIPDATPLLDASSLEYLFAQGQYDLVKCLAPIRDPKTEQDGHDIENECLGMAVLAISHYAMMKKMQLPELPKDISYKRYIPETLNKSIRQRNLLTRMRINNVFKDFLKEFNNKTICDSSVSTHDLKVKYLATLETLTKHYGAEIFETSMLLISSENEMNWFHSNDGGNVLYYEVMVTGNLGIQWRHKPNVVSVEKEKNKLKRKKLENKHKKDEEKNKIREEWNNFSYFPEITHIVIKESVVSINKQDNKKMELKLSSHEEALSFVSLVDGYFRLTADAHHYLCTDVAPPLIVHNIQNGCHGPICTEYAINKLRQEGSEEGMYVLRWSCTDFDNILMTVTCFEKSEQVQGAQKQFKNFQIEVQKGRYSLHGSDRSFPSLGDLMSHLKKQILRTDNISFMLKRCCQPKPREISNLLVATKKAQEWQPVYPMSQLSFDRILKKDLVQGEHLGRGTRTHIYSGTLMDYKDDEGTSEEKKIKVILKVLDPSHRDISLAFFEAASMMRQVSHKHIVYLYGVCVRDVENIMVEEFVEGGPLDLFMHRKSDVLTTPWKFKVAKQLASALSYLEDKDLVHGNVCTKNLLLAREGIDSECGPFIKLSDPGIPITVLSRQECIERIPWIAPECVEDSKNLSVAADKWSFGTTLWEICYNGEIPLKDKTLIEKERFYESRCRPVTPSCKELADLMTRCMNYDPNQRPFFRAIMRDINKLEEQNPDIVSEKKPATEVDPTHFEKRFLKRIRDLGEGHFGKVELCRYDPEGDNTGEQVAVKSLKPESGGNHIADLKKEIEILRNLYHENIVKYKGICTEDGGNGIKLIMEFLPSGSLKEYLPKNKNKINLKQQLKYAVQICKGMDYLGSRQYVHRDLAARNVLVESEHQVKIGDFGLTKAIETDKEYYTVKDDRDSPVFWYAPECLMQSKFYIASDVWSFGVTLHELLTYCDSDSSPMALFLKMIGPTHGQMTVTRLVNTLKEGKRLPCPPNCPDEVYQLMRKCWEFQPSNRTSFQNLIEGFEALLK
Chain of Tyk-2 (P29597 whole entry): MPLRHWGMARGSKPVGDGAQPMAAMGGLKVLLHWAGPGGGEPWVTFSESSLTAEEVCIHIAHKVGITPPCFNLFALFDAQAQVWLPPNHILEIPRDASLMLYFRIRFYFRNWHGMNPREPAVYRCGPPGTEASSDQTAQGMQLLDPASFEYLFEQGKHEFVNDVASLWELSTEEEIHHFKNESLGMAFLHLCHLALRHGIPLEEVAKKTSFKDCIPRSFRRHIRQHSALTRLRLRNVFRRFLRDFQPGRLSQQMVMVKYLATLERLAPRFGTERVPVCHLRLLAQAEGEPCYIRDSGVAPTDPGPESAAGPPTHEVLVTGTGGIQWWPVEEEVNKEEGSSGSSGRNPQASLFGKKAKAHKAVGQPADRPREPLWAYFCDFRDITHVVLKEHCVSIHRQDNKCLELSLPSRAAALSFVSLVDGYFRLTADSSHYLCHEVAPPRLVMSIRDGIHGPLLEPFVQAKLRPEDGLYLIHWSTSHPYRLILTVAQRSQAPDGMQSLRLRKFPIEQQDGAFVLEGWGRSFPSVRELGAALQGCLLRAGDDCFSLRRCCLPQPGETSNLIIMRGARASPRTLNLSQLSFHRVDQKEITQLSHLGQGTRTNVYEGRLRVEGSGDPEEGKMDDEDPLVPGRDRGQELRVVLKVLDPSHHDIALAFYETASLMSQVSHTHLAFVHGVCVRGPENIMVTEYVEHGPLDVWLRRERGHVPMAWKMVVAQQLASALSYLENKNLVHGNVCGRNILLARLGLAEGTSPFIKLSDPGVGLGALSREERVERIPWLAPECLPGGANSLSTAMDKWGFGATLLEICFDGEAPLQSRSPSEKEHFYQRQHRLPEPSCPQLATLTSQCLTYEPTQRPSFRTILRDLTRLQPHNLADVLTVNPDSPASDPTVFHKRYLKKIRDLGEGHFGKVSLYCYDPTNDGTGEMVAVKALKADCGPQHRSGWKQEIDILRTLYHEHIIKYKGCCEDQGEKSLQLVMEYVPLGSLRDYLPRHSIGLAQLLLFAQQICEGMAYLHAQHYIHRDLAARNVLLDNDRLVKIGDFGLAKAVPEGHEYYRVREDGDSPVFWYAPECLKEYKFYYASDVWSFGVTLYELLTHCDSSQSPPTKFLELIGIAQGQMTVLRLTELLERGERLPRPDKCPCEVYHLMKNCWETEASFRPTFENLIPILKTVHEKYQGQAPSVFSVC
Chain of JAK2 (O60674 whole entry): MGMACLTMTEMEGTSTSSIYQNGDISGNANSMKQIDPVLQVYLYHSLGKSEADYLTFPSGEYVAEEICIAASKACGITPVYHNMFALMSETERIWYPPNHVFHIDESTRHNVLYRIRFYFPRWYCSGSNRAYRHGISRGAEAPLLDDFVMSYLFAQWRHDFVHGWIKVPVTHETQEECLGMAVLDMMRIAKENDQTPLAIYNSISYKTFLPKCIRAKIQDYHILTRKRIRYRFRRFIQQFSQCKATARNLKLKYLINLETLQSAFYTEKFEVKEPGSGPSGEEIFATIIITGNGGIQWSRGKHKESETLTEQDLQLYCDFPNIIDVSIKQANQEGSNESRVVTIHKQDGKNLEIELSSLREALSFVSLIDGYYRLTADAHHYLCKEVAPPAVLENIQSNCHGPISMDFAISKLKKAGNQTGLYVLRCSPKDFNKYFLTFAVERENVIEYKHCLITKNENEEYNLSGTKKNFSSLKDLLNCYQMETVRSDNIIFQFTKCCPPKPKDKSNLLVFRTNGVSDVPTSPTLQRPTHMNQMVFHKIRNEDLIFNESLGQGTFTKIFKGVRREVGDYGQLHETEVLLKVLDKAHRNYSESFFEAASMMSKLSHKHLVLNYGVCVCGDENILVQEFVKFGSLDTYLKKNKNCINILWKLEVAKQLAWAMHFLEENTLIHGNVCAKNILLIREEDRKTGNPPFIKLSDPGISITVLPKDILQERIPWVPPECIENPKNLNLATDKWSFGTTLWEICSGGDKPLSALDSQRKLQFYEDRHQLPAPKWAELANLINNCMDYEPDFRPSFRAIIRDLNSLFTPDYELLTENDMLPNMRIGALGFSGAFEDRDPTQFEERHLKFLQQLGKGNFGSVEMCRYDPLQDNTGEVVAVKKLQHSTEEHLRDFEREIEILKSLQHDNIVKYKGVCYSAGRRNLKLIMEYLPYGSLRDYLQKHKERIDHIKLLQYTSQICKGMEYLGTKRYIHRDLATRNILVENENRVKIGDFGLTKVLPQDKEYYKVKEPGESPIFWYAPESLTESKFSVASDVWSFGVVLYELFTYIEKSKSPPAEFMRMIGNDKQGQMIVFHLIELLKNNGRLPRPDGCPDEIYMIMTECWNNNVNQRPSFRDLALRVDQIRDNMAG
Chain of JAK3 (a.a. 781-1124) (P52333 781-1124): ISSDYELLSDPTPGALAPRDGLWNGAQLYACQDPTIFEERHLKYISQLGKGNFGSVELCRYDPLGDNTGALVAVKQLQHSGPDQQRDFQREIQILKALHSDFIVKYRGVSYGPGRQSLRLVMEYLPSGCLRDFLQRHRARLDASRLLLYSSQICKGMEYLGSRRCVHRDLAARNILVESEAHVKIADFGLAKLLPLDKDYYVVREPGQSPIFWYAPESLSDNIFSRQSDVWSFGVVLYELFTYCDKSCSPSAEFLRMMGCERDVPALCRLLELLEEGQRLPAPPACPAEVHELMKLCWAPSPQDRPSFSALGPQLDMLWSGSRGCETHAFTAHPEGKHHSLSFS

Structure (SMILES) | IC50 [1] | IC50 [2] | IC50 [3] | IC50 [4] | IC50 [5] | IC50 [6] | IC50 [7]
N#CCC(=O)N1CCC[C@@H](Nc2c(-c3ccn(C(F)F)n3)cnc3[nH]ccc23)C1 [Example 2, (R)-3-(3-((5-(1-(difluoromethyl)-1H-pyrazol-3-yl)-1H-pyrrolo[2,3-b]pyridin-4-yl)amino)piperidin-1-yl)-3-oxopropanenitrile] | 100 to 1000 nM | ≤ 10 nM | 100 to 1000 nM | ≤ 100 nM | 10 to 100 nM | ≤ 10 nM | 10 to 100 nM
Cc1cc(-c2cnc3[nH]ccc3c2N[C@@H]2CCCN(C(=O)CC#N)C2)[nH]n1 [Example 26, (R)-3-(3-((5-(3-methyl-1H-pyrazol-5-yl)-1H-pyrrolo[2,3-b]pyridin-4-yl)amino)piperidin-1-yl)-3-oxopropanenitrile] | 100 to 1000 nM | ≤ 10 nM | > 1000 nM | ≤ 100 nM | 10 to 100 nM | 10 to 100 nM | 10 to 100 nM
C[C@H]1C[C@@H](Nc2c(-c3ccn(C(F)F)n3)cnc3[nH]ccc23)CN(C(=O)CC#N)C1 [Example 40, 3-((3R,5S)-3-((5-(1-(difluoromethyl)-1H-pyrazol-3-yl)-1H-pyrrolo[2,3-b]pyridin-4-yl)amino)-5-methylpiperidin-1-yl)-3-oxopropanenitrile] | ≤ 100 nM | ≤ 10 nM | ≤ 100 nM | ≤ 100 nM | ≤ 10 nM | ≤ 10 nM | ≤ 10 nM
O[C@H]1CC[C@@H](Nc2c(-c3ncco3)cnc3[nH]ccc23)C1 [Example 13, (1S,3R)-3-((5-(oxazol-2-yl)-1H-pyrrolo[2,3-b]pyridin-4-yl)amino)cyclopentan-1-ol] | > 1000 nM | 10 to 100 nM | > 1000 nM | 100 to 1000 nM | 100 to 1000 nM | 10 to 100 nM | 10 to 100 nM
C[C@H]1C[C@@H](Nc2c(-c3cccc(CO)n3)cnc3[nH]ccc23)CN(C(=O)CC#N)C1 [Example 64, 3-((3R,5S)-3-((5-(6-(hydroxymethyl)pyridin-2-yl)-1H-pyrrolo[2,3-b]pyridin-4-yl)amino)-5-methylpiperidin-1-yl)-3-oxopropanenitrile] | ≤ 100 nM | ≤ 10 nM | > 1000 nM | ≤ 100 nM | ≤ 10 nM | ≤ 10 nM | ≤ 10 nM
N#CCC(=O)N1CCC[C@@H](Nc2c(-c3nccs3)cnc3[nH]ccc23)C1 [Example 4, (R)-3-oxo-3-(3-((5-(thiazol-2-yl)-1H-pyrrolo[2,3-b]pyridin-4-yl)amino)piperidin-1-yl)propanenitrile] | ≤ 100 nM | ≤ 10 nM | 100 to 1000 nM | ≤ 100 nM | ≤ 10 nM | ≤ 10 nM | ≤ 10 nM
N#CCC(=O)N1CCC[C@@H](Nc2c(-c3ccnc(N)n3)cnc3[nH]ccc23)C1 [Example 51, (R)-3-(3-((5-(2-aminopyrimidin-4-yl)-1H-pyrrolo[2,3-b]pyridin-4-yl)amino)piperidin-1-yl)-3-oxopropanenitrile] | 100 to 1000 nM | ≤ 10 nM | > 1000 nM | 100 to 1000 nM | 10 to 100 nM | ≤ 10 nM | ≤ 10 nM
